Test results reported in US5556870A, “Use of leflunomide for inhibiting interleukin 1 beta” (priority 1993, dated 1996).
“Also recorded” adds a separate entry of the source.

Experiments:
[1] = test system: IL1β (interleukin 1 beta); assay: Inhibition of LPS-induced synthesis and liberation of cellular IL1β in human mononuclear cells (sandwich enzyme immuno test of supernatant); type: cell-based; conditions: for activity at 10 µM: concentration 0.01 mmol/l; for activity at 100 µM: concentration 0.1 mmol/l; for inhibitory effect on the synthesis and liberation of cytokines from human blood cells / effect on the IL1β level: in words; for effect on the IL1β level: human mononuclear cells, LPS-induced
Protocol: 10 ml of freshly prepared human citrate blood were carefully underlaid with 15 ml of Lymphoprep® (Molter GmbH, Heidelberg) and then centrifuged at 400×g for 40 min. at 20° C. The cell fraction which was visible as a white ring at the phase boundary was withdrawn with the aid of a syringe, diluted 1:1 (v/v) with PM-16 buffer (from Serva Feinbiochemica GmbH & Co. KG, Heidelberg) and then centrifuged, as above, for 10 min. […] Using a cell counter (type IT, from Coulter Diagnostics, Krefeld), the cell suspension, which is composed of about 90% lymphocytes and 10% monocytes, was adjusted to about 5 million cells/ml. Cell viability was monitored before and after the inhibition experiments using the known lactate dehydrogenase method.
The synthesis and liberation of cellular IL1β was induced by adding a solution of 500 ng of lipopolysaccharide (Salmonella abortus equi, Sigma GmbH, Deisenhofen) in 0.01 ml of dimethyl sulfoxide/water (1:10, v/v) to 0.48 ml of the above-described cell fraction. At the same time, a solution of leflunomide or leflunomide metabolite in 0.01 ml of dimethyl sulfoxide (for the final concentration in each case, see Tab. 1) was added to the cell fraction and the mixture was left at 37° C. for 20 h in a commercially available incubator. After cooling down to 0° C., the samples were centrifuged for 1 min. in a bench centrifuge and in each case 0.025 ml aliquots of the supernatant were examined for their IL1β content using a "sandwich" enzyme-immuno test kit (from Biermann GmbH, Bad Nauheim) in accordance with the manufacturer's instructions. The control values were determined without the addition of leflunomide or metabolite and set at 100%.

[2] = Metabolism of leflunomide in the mononuclear cell test sample (HPLC, time-dependent); type: in vitro ADME, human; conditions: human, mononuclear cells; mononuclear cell test sample, 37° C., HPLC
[3] = test system: isolated blood cell fraction (mononuclear cells); assay: as above; type: in vitro ADME, human; conditions: in words; isolated blood cell fraction (mononuclear cells)
[4] = test system: NMRI mouse; assay: Acute toxicity following intraperitoneal administration, NMRI mice; type: in vivo; conditions: after 3 weeks, Litchfield and Wilcoxon, 30240 min
Protocol: (§1) The acute toxicity following intraperitoneal administration of the test substance was carried out using NMRI mice (20 to 25 g) and SD rats (120 to 195 g). The test substance was suspended in a 1% strength solution of sodium carboxymethyl cellulose. The different doses of the test substance were administered to the mice in a volume of 10 ml/kg of body weight and to the rats in a volume of 5 ml/kg of body weight. 10 animals were used per dose. After 3 weeks, the acute toxicity was determined by the method of Litchfield and Wilcoxon.

[5] = test system: SD rat; assay: Acute toxicity following intraperitoneal administration, SD rats; type: in vivo; conditions: after 3 weeks, Litchfield and Wilcoxon, 30240 min
Protocol: as §1

[6] = Homo sapiens, control without addition = 100%, +/- standard deviation, 20 h, 37° C., LPS 500 ng

Row | Compound | activity at 0.1 µM ([1]; Homo sapiens, concentration 0.0001 mmol/l, control without addition = 100%, +/- standard deviation, 20 h, 37° C., LPS 500 ng) [%] | activity at 5 µM ([1]; Homo sapiens, concentration 0.005 mmol/l, control without addition = 100%, n = 2, deviation not given, 20 h, 37° C., LPS 500 ng) [%] | activity at 10 µM [1, 6] [%] | activity at 50 µM ([1]; Homo sapiens, concentration 0.05 mmol/l, control without addition = 100%, +/- standard deviation, 20 h, 37° C., LPS 500 ng) [%] | activity at 100 µM [1, 6] [%] | inhibitory effect on the synthesis and liberation of cytokines from human blood cells [1] | effect on the IL1β level [1] | half-life [2] [h] | metabolism of leflunomide under the experimental conditions [3] | acute toxicity intraperitoneally LD50 [4] | acute toxicity intraperitoneally LD50 [5]
1 | Cc1oncc1C(=O)Nc1ccc(C(F)(F)F)cc1 [Leflunomide, N-(4-trifluoromethylphenyl)-5-methylisoxazole-4-carboxamide] | 86 ± 11 | 68 | 70 ± 8 | 27 ± 6 | 17 ± 4 | strong inhibitory effect | clearly lowered | ~10 | did not, to any appreciable extent, metabolize the leflunomide to its metabolites; also recorded: metabolized only very slowly; also recorded: no appreciable metabolism | 185 (163-210) mg/kg | 170 (153-189) mg/kg
2 | C/C(O)=C(\C#N)C(=O)Nc1ccc(C(F)(F)F)cc1 [Leflunomide metabolite, N-(4-trifluoromethylphenyl)-2-cyano-3-hydroxycrotonamide] |  |  | 100 ± 3 |  | 99 ± 12 | does not exhibit this advantageous effect | practically no effect on the IL1β level |  |  |  | 
